The source of these data is article PMC3930514, “Deletion of Ubiquitin Fold Modifier Protein Ufm1 Processing Peptidase Ufsp in L. donovani Abolishes Ufm1 Processing and Alters Pathogenesis” (PLoS Neglected Tropical Diseases, 2014).

Test [1] addresses T1, LdUfsp (recombinant Ufsp, rLdUfsp) (Leishmania donovani, UniProt E9BRI1).
T1 construct: gene LdCL_340047700; partial ORF 427-1518 bp (about codons 143-506) in pEXP5-CT-Topo, E. coli BL21-pLysS, native purification; 43 and 39 kDa bands; L. infantum homolog is LinJ.34.3830
Briefly: FRET cleavage assay with YFP-Ufm1-ECFP. The conditions noted are these: 0.1, 1, 10 µg/ml; 250 nM substrate; pH 7.5, 37 °C, 60 min. Format: biochemical.

In test [2] the target is T1, LdUfsp (recombinant Ufsp, rLdUfsp). Nature of the test: biolayer interferometry (Octet, streptavidin sensor). The conditions noted are these: biotinylated protein immobilised. Format: binding. (In general: BLI is a label-free optical method that tracks binding on a fibre tip over time.)

T1 sequence (E9BRI1 entry or part of it): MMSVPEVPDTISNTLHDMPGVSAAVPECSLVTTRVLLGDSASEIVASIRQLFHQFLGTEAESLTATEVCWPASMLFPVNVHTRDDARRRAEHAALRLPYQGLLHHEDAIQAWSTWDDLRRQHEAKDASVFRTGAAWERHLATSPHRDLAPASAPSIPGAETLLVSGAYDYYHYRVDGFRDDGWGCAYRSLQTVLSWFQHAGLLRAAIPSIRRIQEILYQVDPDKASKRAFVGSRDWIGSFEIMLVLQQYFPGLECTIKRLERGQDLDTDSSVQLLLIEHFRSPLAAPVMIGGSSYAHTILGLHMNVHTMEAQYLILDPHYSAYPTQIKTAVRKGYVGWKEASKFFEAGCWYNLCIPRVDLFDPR

Regarding `C[C@@H]1[C@H](O)[C@@H](C)/C=C/C=C/C=C/C=C/C=C/C=C/C=C/[C@H](O[C@@H]2O[C@H](C)[C@@H](O)[C@H](N)[C@@H]2O)C[C@@H]2O[C@](O)(C[C@@H](O)C[C@@H](O)[C@H](O)CC[C@@H](O)C[C@@H](O)CC(=O)O[C@H]1C)C[C@H](O)[C@H]2C(=O)O` [Amphotericin B], the “% Ufm1 processing activity (Δ530, % of 20 mM N-ethyl maleimide)” value in test [1] is listed as “Amphotericin B showed inhibitory effects on the Ufm1 processing activity”. Moreover, the “biolayer interferometry (Octet, streptavidin sensor)” value in test [2] is “Results showed that Amphotericin B can bind to the biotinylated Ufsp protein”.
